Laboratory results published in ChEMBL document CHEMBL5236544, “Furazans in Medicinal Chemistry” (J Med Chem, 2021).
Values after ≈ are worked out from the molar mass of the structure shown.

Assays:
[1] = target: Mitogen-activated protein kinase 14 (Homo sapiens) (UniProt Q16539); assay: Inhibition of recombinant p38alpha MAPK (unknown origin) at 10 uM preincubated for 10 mins followed by substrate addition and measured after 40 mins in the presence of ATP by ADP-Glo assay; settings: time 60.0 min
[2] = target: Tumor necrosis factor (Homo sapiens) (UniProt P01375); assay: Inhibition of TNF-alpha secretion in human THP-1 cells; design: concentration or dose not given beside the values; settings: concentration not given here
HeLa = assay: Antiproliferative activity against human HeLa cells assessed as reduction in cell proliferation incubated for 72 hrs by MTS assay; type: functional, cell-based
[3] = target: T1, Amyloid-beta precursor protein (Homo sapiens, UniProt P05067); assay: Inhibition of amyloid beta (unknown origin) aggregation at 10 uM relative to control
[4] = Inhibition of rabbit GSK-3beta using CREB Phosphopeptide ( Lys-Arg-Arg-Glu-Ile-Leu-Ser-Arg-Arg-Pro-Ser(P)-Tyr-Arg) as substrate by scintillation counter method; design: species or system Oryctolagus cuniculus
[5] = Anti-inflammatory activity against human PBMCs assessed as reduction in LPS-induced TNF-alpha release by ELISA analysis; type: functional, cell-based; settings: PBMC
Mus musculus = species: Mus musculus; assay: Anti-inflammatory activity in LPS-induced inflammatory mouse model assessed as reduction in neutrophil influx; type: functional
Rattus norvegicus = species: Rattus norvegicus; assay: Anti-inflammatory activity against ovalbumin induced lung inflammatory rat model assessed as reduction in eosinophil influx; type: functional
[6] = Inhibition of ROMK (unknown origin); design: species or system Homo sapiens
HL-60 = assay: Antiproliferative activity against (unknown origin) HL-60 assessed as inhibition of cell proliferation by MTT assay; type: functional, cell-based; settings: Homo sapiens
Daudi = assay: Antiproliferative activity against human Daudi assessed as inhibition of cell proliferation by MTT assay; type: functional, cell-based
[7] = target: Ribosomal protein S6 kinase alpha-5 (Homo sapiens, UniProt O75582); assay: Inhibition of MSK-1 (unknown origin)
[8] = Inhibition of HIF (unknown origin); design: species or system Homo sapiens
[9] = target: T1, Amyloid-beta precursor protein; assay: Inhibition of amyloid beta (unknown origin) at 5 uM relative to control
[10] = target: Microtubule-associated protein tau (Homo sapiens) (UniProt P10636); assay: Inhibition of tau (unknown origin) at 5 uM relative to control
Haemophilus influenzae = assay: Antibacterial activity against Haemophilus influenzae assessed as reduction in bacterial growth by broth microdilution method; type: functional
Staphylococcus aureus = assay: Antibacterial activity against Staphylococcus aureus assessed as reduction in bacterial growth by broth microdilution method; type: functional
Streptococcus pneumoniae = assay: Antibacterial activity against Streptococcus pneumoniae assessed as reduction in bacterial growth by broth microdilution method; type: functional
[11] = Binding affinity to human erythrocyte nucleoside transport protein assessed as inhibition constant; type: cell-based
Histamine H2 receptor = Histamine H2 receptor (Homo sapiens, UniProt P25021); assay: Antagonist activity at histamine H2 receptor (unknown origin) assessed as inhibition constant
[12] = target: Cyclin-dependent kinase inhibitor 1 (Homo sapiens, UniProt P38936); assay: Inhibition of p21 (unknown origin)
[13] = target: Ribosomal protein S6 kinase alpha-1 (Homo sapiens, UniProt Q15418); assay: Inhibition of RSK1 (unknown origin)
Lactate dehydrogenase = Lactate dehydrogenase (Plasmodium falciparum, UniProt Q0PJ46); assay: Inhibition of recombinant Plasmodium falciparum LDH
[14] = Inhibition of human recombinant LDH
BaF3 = assay: Antiproliferative activity against mouse BaF3 cells transfected with FLT3-ITD assessed as cell growth inhibition; type: functional, cell-based
Influenza A virus = assay: Antiviral activity against influenza A H1N1; type: functional, organism-based

Sequence of Mitogen-activated protein kinase 14 (Homo sapiens) (Q16539 whole entry): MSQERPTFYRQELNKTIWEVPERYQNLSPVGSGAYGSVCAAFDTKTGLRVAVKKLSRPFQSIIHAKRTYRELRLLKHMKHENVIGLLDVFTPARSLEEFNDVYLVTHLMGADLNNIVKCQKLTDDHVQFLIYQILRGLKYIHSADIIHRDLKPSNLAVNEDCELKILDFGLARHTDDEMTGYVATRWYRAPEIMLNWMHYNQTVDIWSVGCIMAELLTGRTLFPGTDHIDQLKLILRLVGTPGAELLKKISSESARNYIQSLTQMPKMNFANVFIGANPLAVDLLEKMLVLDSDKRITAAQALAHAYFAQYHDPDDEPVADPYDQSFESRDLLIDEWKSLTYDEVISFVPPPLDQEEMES
T1 sequence (P05067 whole entry): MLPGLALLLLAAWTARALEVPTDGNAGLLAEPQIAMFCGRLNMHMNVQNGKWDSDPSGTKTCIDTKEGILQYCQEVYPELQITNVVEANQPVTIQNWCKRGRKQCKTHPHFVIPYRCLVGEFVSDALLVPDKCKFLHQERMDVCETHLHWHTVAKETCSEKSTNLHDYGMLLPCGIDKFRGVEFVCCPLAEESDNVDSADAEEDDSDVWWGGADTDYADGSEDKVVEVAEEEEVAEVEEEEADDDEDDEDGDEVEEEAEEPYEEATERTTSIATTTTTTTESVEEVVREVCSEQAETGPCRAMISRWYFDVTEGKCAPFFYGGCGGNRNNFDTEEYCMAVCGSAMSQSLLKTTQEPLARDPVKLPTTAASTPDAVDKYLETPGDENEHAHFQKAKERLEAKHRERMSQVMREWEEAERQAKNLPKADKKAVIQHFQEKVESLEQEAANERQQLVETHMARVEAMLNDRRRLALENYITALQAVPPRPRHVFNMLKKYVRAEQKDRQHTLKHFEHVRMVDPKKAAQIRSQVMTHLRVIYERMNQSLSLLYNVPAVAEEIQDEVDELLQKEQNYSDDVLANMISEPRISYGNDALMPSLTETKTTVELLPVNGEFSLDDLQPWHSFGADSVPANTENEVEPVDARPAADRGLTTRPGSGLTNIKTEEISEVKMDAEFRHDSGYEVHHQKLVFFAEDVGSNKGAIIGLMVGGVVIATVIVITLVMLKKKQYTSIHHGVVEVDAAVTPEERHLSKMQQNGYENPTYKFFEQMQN
Sequence of Tumor necrosis factor (Homo sapiens) (P01375 whole entry, looked up): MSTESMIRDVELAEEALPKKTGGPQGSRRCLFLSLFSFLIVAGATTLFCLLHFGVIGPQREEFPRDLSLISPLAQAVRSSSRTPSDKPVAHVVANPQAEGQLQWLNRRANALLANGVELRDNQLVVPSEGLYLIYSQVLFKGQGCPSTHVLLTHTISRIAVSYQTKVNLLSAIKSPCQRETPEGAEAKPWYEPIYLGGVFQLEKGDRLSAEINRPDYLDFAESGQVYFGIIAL
Sequence of Histamine H2 receptor (P25021 whole entry): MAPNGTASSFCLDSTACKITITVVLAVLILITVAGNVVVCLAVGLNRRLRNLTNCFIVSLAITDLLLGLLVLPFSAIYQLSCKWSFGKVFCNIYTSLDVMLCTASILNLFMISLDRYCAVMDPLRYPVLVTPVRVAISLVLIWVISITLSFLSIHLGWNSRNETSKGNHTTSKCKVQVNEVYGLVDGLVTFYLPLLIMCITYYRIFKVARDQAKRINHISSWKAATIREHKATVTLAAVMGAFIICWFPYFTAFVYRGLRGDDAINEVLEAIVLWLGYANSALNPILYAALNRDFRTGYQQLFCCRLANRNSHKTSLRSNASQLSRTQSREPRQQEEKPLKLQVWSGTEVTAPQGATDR
Sequence of Cyclin-dependent kinase inhibitor 1 (P38936 whole entry): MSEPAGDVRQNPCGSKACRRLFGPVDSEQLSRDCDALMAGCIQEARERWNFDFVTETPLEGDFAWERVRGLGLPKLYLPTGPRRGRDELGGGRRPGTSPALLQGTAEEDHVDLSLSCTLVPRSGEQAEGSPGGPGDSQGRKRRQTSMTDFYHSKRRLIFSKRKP
Sequence of Ribosomal protein S6 kinase alpha-5 (O75582 whole entry): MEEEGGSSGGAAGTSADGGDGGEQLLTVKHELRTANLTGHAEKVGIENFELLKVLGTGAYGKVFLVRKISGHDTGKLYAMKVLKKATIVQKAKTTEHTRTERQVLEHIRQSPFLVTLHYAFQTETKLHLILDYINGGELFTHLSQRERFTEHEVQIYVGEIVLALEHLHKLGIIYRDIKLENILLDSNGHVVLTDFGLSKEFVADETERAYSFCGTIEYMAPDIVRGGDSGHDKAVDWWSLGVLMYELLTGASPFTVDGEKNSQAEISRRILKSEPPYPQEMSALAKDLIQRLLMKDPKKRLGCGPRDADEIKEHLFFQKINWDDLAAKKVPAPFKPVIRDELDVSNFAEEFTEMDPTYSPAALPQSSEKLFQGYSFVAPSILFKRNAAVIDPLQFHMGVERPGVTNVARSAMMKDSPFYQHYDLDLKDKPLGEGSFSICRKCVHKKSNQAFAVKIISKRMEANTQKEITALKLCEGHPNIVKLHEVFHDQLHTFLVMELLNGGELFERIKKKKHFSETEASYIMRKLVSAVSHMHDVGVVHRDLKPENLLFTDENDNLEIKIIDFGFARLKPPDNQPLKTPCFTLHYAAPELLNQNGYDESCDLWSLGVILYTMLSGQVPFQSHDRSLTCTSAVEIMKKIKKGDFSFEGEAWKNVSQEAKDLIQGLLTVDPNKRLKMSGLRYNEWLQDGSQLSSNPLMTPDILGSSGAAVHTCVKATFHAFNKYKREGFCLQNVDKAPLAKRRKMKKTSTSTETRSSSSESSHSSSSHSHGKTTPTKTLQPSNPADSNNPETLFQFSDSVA
Sequence of Microtubule-associated protein tau (Homo sapiens) (P10636 whole entry): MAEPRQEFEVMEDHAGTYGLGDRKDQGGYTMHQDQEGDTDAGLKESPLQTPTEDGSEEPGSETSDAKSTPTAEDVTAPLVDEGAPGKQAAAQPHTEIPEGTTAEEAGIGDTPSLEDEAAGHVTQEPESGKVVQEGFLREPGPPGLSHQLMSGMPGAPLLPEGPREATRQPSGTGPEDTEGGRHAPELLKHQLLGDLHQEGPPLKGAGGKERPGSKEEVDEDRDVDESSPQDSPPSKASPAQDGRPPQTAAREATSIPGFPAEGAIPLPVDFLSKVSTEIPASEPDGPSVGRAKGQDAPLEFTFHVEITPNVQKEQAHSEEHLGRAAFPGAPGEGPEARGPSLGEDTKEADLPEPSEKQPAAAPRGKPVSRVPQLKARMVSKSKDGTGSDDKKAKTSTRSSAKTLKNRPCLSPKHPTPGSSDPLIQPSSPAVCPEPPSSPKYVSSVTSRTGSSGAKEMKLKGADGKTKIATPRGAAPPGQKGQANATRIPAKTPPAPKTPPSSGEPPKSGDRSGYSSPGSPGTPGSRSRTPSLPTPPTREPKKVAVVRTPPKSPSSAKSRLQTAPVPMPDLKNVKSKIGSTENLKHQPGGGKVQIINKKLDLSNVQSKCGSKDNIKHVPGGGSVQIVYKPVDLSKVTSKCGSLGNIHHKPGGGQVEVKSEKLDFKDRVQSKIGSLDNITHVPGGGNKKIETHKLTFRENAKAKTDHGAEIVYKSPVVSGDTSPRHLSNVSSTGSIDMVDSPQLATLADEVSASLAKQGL
Sequence of Ribosomal protein S6 kinase alpha-1 (Q15418 whole entry): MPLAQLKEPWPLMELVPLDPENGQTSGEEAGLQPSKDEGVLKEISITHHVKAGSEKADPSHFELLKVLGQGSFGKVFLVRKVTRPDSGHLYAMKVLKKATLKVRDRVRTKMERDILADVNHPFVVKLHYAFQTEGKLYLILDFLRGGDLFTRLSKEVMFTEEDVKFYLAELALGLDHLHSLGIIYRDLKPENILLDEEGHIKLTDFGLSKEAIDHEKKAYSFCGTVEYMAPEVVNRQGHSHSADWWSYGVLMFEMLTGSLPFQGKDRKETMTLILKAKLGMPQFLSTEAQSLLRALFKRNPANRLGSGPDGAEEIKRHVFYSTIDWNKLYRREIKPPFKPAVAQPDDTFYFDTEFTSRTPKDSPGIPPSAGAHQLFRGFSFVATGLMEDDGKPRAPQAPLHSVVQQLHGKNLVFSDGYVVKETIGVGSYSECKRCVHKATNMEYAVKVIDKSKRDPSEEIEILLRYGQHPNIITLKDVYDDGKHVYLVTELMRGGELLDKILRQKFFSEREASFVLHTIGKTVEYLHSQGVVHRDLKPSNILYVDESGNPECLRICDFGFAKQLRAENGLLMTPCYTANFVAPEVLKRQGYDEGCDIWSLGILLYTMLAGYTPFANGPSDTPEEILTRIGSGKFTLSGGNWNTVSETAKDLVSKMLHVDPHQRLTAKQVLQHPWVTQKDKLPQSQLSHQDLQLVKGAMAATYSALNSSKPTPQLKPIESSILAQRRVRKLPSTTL
Sequence of Lactate dehydrogenase (Q0PJ46 whole entry): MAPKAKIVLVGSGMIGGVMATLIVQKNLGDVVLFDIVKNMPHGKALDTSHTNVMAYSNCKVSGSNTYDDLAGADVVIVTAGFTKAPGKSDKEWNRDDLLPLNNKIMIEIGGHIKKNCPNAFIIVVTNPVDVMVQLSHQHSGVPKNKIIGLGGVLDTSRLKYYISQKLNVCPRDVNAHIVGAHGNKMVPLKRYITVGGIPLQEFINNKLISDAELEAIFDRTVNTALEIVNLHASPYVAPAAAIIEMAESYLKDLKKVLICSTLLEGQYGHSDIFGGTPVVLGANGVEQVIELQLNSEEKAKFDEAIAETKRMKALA

`CCOC(=O)c1ccc(Nc2nc3nonc3nc2N2CCC(Sc3ccc(Cl)cc3)CC2)cc1` showed an inhibition [1] of 86% and an inhibition [2] of 36%.
In the case of `N#CCCNc1nonc1C1=NC2C=CC=CC2N1CC(=O)c1ccc(N)cc1` (configuration not stated), the EC50 (HeLa) is reported as 10 nM.
Work on `OC(c1cccc(-c2cc(N3CCCC3)c3nonc3c2)c1)C(F)(F)F` (configuration not stated) yielded an inhibition [3] of 88.9%.
`Cn1c(N2CCO[C@@H](c3ccc(F)cc3)C2)nc(-c2ccncn2)cc1=O` showed an IC50 [4] of 12 nM.
With `Nc1ncnn1-c1nc2ccccc2n1CC(=O)c1ccc(Cl)cc1` the EC50 (HeLa) was 100 nM.
In the case of `O=C(Nc1c(Cl)cncc1Cl)c1ccc(OC(F)F)c(OCC2CC2)c1` [ROFLUMILAST], the EC50 [5] is reported as 50 nM, the ED50 (Mus musculus) is reported as 0.031 µmol/kg and the ED50 (Rattus norvegicus) is reported as 0.0018 µmol/kg.
`CN1CCOC(C2=C(C#N)C(c3cccc4nonc34)c3c[nH]nc3N2)C1` (configuration not stated) showed an IC50 [4] of 14 nM.
Compound `N#CC1=C(C2CCCCN2)Nc2n[nH]cc2C1c1cccc2nonc12` (configuration not stated) has an IC50 [4] of 3.7 nM.
`O=C1OCc2cc(CCN3CCN(CCc4ccc5nonc5c4)CC3)ccc21` showed an IC50 [6] of 2200 nM.
`O=C(OCc1ccccc1)c1ccc(Nc2ccc([N+](=O)[O-])c3nonc23)cc1` showed an EC50 (HL-60) of 7200 nM and an EC50 (Daudi) of 3500 nM.
Compound `CCn1c(-c2c[nH]nc2N)nc2cnccc21` has an IC50 [7] of 55 nM.
With `O=[N+]([O-])c1c(Nc2ccc(Cl)c(C(F)(F)F)c2)ccc2nonc12` the IC50 [8] was 90 nM.
With `CCn1c(-c2cn(C)nc2N)nc2cnccc21` the IC50 [7] was 1520 nM.
With `OC(c1cccc(-c2cc(N3CCC(N4CCCC4)CC3)c3nonc3c2)c1)C(F)(F)F` (configuration not stated) the inhibition [9] was 40% and the inhibition [10] was 64%.
With `O=[N+]([O-])c1c(Nc2ccc(Cl)c(Cl)c2)ccc2nonc12` the IC50 [8] was 120 nM.
Work on `Nc1nonc1-c1nc2ccccc2n1CC(=O)c1ccc(Cl)cc1` yielded an EC50 (HeLa) of 100 nM.
With `CCOC(=O)c1ccc(Nc2nc3nonc3nc2N2CCC(Cc3ccccc3)CC2)cc1` the inhibition [1] was 64% and the inhibition [2] was 40%.
In the case of `Oc1nc2nonc2nc1-c1ccc(Br)cc1`, the MIC (Haemophilus influenzae) is reported as 3.4 µM (≈ 0.996 µg/mL), the MIC (Staphylococcus aureus) is reported as 55 µM (≈ 16.1 µg/mL) and the MIC (Streptococcus pneumoniae) is reported as 0.22 µM (≈ 0.0645 µg/mL).
For `OC[C@H]1O[C@@H](n2cnc3c(SCc4cccc5nonc45)ncnc32)[C@H](O)[C@@H]1O`, the Ki [11] was 9.7 nM.
With `CN(C)Cc1ccc(CSCCNc2nonc2N)o1` the Ki (Histamine H2 receptor) was 26 nM.
Compound `OC[C@H]1O[C@@H](n2cnc3c(SCc4ccc5nonc5c4)ncnc32)[C@H](O)[C@@H]1O` has a Ki [11] of 1.5 nM.
For `CN(C)Cc1ccc(CSCCNc2nonc2NCCCc2ccccc2)o1`, the Ki (Histamine H2 receptor) was 2 nM.
`CC(=O)c1cccc(CC2CCCc3c2[nH]c2ccc(C)cc32)c1` (configuration not stated) showed an IC50 [12] of 170 nM.
Compound `CCOC(=O)c1ccc(Nc2nc3nonc3nc2Nc2cccc(C)c2C)cc1` has an IC50 [12] of 760 nM.
In the case of `OC[C@H]1O[C@@H](n2cnc3c(SCc4cccc5nc[nH]c45)ncnc32)[C@H](O)[C@@H]1O`, the Ki [11] is reported as > 10 nM.
`Cn1cnc(COc2ccc3c(c2)C(C)(O)O[C@]32CC[C@H](n3c(-c4nonc4N)nc4cc(F)ccc43)CC2)n1` (some centres not stated) showed an IC50 [13] of 3 nM.
`Clc1ccc(OC2CCN(c3nc4nonc4nc3Nc3ccc4occc4c3)CC2)cc1` gave an inhibition [1] of 95% and an inhibition [2] of 51%.
Work on `O=[N+]([O-])c1c(Nc2ccc(Br)c(F)c2)ccc2nonc12` yielded an IC50 [8] of 150 nM.
`CCCNC(=O)c1ccc(Nc2nc3nonc3nc2N2CCC(Sc3ccc(C)cc3)CC2)cc1` showed an inhibition [1] of 90% and an inhibition [2] of 60%.
`CN(C)C1CCC(C2=C(C#N)C(c3cccc4nonc34)c3c[nH]nc3N2)CC1` (configuration not stated) gave an IC50 [4] of 4.1 nM.
For `OC[C@H]1O[C@@H](n2cnc3c(SCc4ccc(Cl)c5nonc45)ncnc32)[C@H](O)[C@@H]1O`, the Ki [11] was 25 nM.
With `CN(Cc1ccc(F)cc1)c1cc(C(O)C(F)(F)F)cc2nonc12` (configuration not stated) the inhibition [9] was 38% and the inhibition [10] was 78%.
For `Nc1ccc(C(=O)Cn2c(-n3ncnc3N)nc3ccccc32)cc1`, the EC50 (HeLa) was 100 nM.
With `Cn1nnc(O)c1C(=O)O` the IC50 (Lactate dehydrogenase) was > 100000 nM and the IC50 [14] was > 100000 nM.
Work on `O=[N+]([O-])c1ccc(Nc2ccccc2-c2ccccc2)c2nonc12` yielded an EC50 (HL-60) of 30000 nM and an EC50 (Daudi) of 10000 nM.
Work on `O=C(O)c1nonc1NCn1nnnc1Cc1cccc(Cl)c1` yielded an EC50 (BaF3) of 3000 nM.
In the case of `O=C(OCC(F)(F)F)c1ccc(Nc2ccc([N+](=O)[O-])c3nonc23)cc1`, the EC50 (HL-60) is reported as 8500 nM and the EC50 (Daudi) is reported as 1900 nM.
In the case of `O=C(NCCSc1ccc([N+](=O)[O-])c2nonc12)c1cccnc1`, the IC50 (Influenza A virus) is reported as 1000 nM.
